Measurements reported in ChEMBL document CHEMBL4152292, “Rational design of carbamate-based dual binding site and central AChE inhibitors by a "biooxidisable" prodrug approach: Synthesis, in vitro evaluation and docking studies” (Eur J Med Chem, 2018).

Assays:
[1] = molecular target: T1, Acetylcholinesterase (Homo sapiens, UniProt P22303); experiment: Inhibition of human erythrocytes AChE using acetylthiocholine iodide as substrate preincubated for 5 mins followed by substrate addition measured every min for 10 mins by Ellman's method
[2] = molecular target: T2, Acetylcholinesterase (Bos taurus, UniProt P23795); experiment: Inhibition of bovine erythrocytes AChE using acetylthiocholine iodide as substrate by Ellman's method
T2 sequence (P23795 whole entry): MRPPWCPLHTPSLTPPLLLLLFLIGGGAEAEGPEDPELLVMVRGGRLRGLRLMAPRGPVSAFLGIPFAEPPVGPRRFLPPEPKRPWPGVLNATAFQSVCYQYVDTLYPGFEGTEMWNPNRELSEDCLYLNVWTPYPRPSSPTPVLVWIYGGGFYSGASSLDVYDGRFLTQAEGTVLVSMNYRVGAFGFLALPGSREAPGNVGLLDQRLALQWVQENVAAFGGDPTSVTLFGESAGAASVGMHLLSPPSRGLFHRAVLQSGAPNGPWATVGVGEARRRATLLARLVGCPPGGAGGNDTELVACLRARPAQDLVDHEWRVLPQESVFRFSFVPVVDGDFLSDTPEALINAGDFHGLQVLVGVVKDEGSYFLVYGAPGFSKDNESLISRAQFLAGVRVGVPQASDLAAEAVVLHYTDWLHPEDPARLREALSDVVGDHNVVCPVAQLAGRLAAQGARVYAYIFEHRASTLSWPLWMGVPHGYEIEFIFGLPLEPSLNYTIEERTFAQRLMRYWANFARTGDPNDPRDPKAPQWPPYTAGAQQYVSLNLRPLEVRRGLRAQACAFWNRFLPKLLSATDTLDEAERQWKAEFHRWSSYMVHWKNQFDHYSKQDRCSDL

[3] = molecular target: T1, Acetylcholinesterase; experiment: Displacement of propidium iodide from PAS of human AChE after 6 hrs by fluorescence assay
[4] = molecular target: Amyloid-beta precursor protein (Homo sapiens) (UniProt P05067); experiment: Inhibition of self-induced aggregation of amyloid beta (1 to 42 residues) (unknown origin) at 10 uM measured every 5 mins by Thioflavin T dye based fluorescence assay relative to control
[5] = Apparent permeability from apical to basolateral side in human Caco2 cells at 10 uM at pH 7.4 measured after 60 mins by HPLC-MS/MS method; assay type: ADME, cell-based; settings: Caco-2, pH 7.4
[6] = Apparent permeability from apical to basolateral side in human Caco2 cells assessed as drug recovery at 10 uM at pH 7.4 measured after 60 mins by HPLC-MS/MS method; assay type: ADME, cell-based; settings: Caco-2, pH 7.4, read-out: Drug recovery
[7] = molecular target: T1, Acetylcholinesterase; experiment: Inhibition of human erythrocytes AChE at 10^-5 M using acetylthiocholine iodide as substrate preincubated for 5 mins followed by substrate addition measured every min for 10 mins by Ellman's method

T1 sequence (P22303 whole entry): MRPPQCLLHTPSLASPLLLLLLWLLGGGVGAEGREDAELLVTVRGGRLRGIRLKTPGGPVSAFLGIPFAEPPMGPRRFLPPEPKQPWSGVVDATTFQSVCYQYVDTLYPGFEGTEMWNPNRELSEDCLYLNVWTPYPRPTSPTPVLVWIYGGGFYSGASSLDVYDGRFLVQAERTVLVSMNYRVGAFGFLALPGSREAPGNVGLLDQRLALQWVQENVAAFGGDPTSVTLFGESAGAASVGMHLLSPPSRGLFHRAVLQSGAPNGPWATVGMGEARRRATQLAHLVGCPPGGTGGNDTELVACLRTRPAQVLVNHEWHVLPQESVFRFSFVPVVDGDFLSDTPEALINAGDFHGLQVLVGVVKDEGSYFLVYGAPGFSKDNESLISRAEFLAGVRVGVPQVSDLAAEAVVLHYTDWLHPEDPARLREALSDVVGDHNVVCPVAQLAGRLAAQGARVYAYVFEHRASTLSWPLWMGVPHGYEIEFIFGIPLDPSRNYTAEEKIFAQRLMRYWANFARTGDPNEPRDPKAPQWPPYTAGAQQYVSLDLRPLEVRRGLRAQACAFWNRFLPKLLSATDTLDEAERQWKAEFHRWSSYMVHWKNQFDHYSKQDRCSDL
Chain of Amyloid-beta precursor protein (Homo sapiens) (P05067 whole entry, the tested form may be a part): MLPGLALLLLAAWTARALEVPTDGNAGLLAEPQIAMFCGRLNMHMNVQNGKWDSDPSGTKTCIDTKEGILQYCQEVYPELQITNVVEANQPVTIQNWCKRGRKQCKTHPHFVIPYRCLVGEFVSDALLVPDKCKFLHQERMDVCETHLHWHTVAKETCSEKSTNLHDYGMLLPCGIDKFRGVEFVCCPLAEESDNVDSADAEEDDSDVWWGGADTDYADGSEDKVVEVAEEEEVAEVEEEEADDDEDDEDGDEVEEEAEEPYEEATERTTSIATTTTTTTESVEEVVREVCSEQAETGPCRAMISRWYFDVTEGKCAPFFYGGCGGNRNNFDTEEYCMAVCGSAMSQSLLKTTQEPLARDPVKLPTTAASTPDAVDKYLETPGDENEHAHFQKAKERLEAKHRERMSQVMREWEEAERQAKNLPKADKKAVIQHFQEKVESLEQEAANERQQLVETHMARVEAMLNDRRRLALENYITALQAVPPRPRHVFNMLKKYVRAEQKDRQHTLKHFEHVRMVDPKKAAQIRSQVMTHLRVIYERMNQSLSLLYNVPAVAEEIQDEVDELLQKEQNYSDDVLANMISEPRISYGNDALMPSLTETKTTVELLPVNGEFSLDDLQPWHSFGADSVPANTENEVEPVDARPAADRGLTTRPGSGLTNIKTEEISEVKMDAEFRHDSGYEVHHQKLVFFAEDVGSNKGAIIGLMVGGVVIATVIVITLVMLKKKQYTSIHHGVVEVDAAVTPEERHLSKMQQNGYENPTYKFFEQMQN

Compound	IC50 [1] [nM]	other results
COC(=O)CNC(=O)c1cc2c(OC(=O)N(C)C)cccc2[n+](C)c1	93	
CC(C)NC(=O)c1cc2c(OC(=O)N3CCCC3)cccc2[n+](C)c1	> 10000	
Cc1c(C(=O)N(C)C)c(C)[n+](C)c2cccc(OC(=O)N(C)C)c12	> 10000	
CN(C)C(=O)Oc1cccc2c1cc(C(=O)NCCOCCOCCN1C(=O)c3ccccc3C1=O)c[n+]2C	6	IC50 [2]: 6 nM; Activity [3]: 20%; inhibition [4]: 14%
CN(C)C(=O)Oc1cccc2c1cc(C(=O)NC1CCCCC1)c[n+]2C	20	
CNC(=O)c1cc2c(OC(=O)N(C)C)cccc2[n+](Cc2ccccc2)c1	1160	
CNC(=O)c1cc2c(OC(=O)N(C)C)cccc2[n+](C)c1	77	
CN(C)C(=O)Oc1cccc2c1CC(C(=O)NCCOCCOCCN1C(=O)c3ccccc3C1=O)=CN2C	> 10000	Papp A→B at 1 h, 10 µM [5]: 11.1 ×10⁻⁶ cm/s; recovery at 1 h, 10 µM [6]: 91%
COCCNC(=O)c1cc2c(OC(=O)N(C)C)cccc2[n+](C)c1	20	
CCN(C)C(=O)Oc1cccc2c1cc(C(=O)NC(C)C)c[n+]2C	> 10000	
CN(C)C(=O)Oc1cccc2c1cc(C(=O)NCCOCCO)c[n+]2C	37	
CN(C)C(=O)Oc1cccc2c1cc(C(=O)Nc1ccccc1)c[n+]2C	30	
C[n+]1cc(C(=O)NCCOCCOCCN2C(=O)c3ccccc3C2=O)cc2c(O)cccc21	> 10000	inhibition [7]: 35%
Cc1c(C(=O)N(C)C)cc2c(OC(=O)N(C)C)cccc2[n+]1C	> 10000	
CN(C)C(=O)Oc1cccc2c1cc(C(=O)N(C)C)c[n+]2C	154	
Cc1c(C(=O)N(C)C)c[n+](C)c2cccc(OC(=O)N(C)C)c12	> 10000	
CC(C)NC(=O)c1cc2c(OC(=O)N(C)C)cccc2[n+](C)c1	58	
CC[n+]1cc(C(=O)NC)cc2c(OC(=O)N(C)C)cccc21	314	
